From PMC9234962, “Optimization of Peptide Linker-Based Fluorescent Ligands for the Histamine H1 Receptor” (Journal of Medicinal Chemistry, 2022) come the findings set out here.

Square brackets hold non-standard residues; d marks the D form. Peptide text beside a SMILES is read from it. * marks the point of attachment. Propanoyl(3-Pip(4-O-2-BnPh)) = O=C(CCN1CCC(Oc2ccccc2Cc2ccccc2)CC1)*

This assay addresses Nluc-H1R (Homo sapiens, UniProt P35367). The assay can be described thus: NanoBRET competition binding assay (displacement of 1) on Nluc-H1R expressing HEK293T cells. The following applies: for Ki / pKi: displacement of 1 (25 nM, KD = 8 nM), whole HEK293T cells, Cheng–Prusoff; for pKi: mean ± SEM, three experiments. In general terms: In BRET a luciferase serves as donor, and the signal depends on an acceptor being close.

Chain of Nluc-H1R (P35367 whole entry): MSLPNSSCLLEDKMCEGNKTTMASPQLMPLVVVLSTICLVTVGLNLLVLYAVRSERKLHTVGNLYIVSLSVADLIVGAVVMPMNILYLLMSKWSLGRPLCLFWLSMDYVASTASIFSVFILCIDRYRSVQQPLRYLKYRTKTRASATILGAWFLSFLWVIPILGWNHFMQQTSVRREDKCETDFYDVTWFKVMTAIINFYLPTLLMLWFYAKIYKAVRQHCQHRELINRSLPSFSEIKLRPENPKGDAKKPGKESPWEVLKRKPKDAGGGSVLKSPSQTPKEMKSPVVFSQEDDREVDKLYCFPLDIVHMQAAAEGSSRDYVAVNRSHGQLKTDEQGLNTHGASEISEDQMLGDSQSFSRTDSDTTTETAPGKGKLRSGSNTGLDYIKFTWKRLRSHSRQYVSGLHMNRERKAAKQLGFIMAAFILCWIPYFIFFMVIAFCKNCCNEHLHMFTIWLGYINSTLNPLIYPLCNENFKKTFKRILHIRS

What is called Ki is a measure of affinity in units of concentration, obtained from inhibition or displacement. High values mean lower affinity, low ones higher affinity. In general, pKi refers to the negative decadic logarithm of the Ki, by convention in mol/L. A higher pKi goes with a small Ki. The compound `C[C@H](NC(=O)CNC(=O)CCN1CCC(Oc2ccccc2Cc2ccccc2)CC1)C(=O)N[C@@H](C)C(=O)N[C@H](Cc1ccccc1)C(N)=O` [Compound 8b, (S)-N-((R)-1-Amino-1-oxo-3-phenylpropan-2-yl)-2-((S)-2-(2-(3-(4-(2-benzylphenoxy)piperidin-1-yl)propanamido)acetamido)propanamido)propanamide] ({Propanoyl(3-Pip(4-O-2-BnPh))}-GAA[dF]-NH2) registered a Ki of 513 nM and a negative logarithm of the Ki (pKi) of 6.29 ± 0.21.

As to `CC(C)[C@H](NC(=O)CCN1CCC(Oc2ccccc2Cc2ccccc2)CC1)C(=O)N[C@@H](Cc1cnc[nH]1)C(=O)N[C@@H](C)C(=O)N[C@H](Cc1ccccc1)C(N)=O` [Compound 9g, (S)-N-((S)-1-(((S)-1-(((R)-1-Amino-1-oxo-3-phenylpropan-2-yl)amino)-1-oxopropan-2-yl)amino)-3-(1H-imidazol-5-yl)-1-oxopropan-2-yl)-2-(3-(4-(2-benzylphenoxy)piperidin-1-yl)propanamido)-3-methylbutanamide] ({Propanoyl(3-Pip(4-O-2-BnPh))}-VHA[dF]-NH2), the affinity, expressed as Ki, was 692 nM and the negative logarithm of the Ki (pKi) was 6.16 ± 0.06.

`CC(C)[C@H](NC(=O)CCN1CCC(Oc2ccccc2Cc2ccccc2)CC1)C(=O)N[C@@H](CO)C(=O)NCC(=O)N[C@H](Cc1ccccc1)C(N)=O` [Compound 10a, (S)-N-((S)-1-((2-(((R)-1-Amino-1-oxo-3-phenylpropan-2-yl)amino)-2-oxoethyl)amino)-3-hydroxy-1-oxopropan-2-yl)-2-(3-(4-(2-benzylphenoxy)piperidin-1-yl)propanamido)-3-methylbutanamide] ({Propanoyl(3-Pip(4-O-2-BnPh))}-VSG[dF]-NH2) gave a Ki of 158 nM and a pKi of 6.80 ± 0.05.

In turn, `CC(C)[C@H](NC(=O)CCN1CCC(Oc2ccccc2Cc2ccccc2)CC1)C(=O)N[C@@H](CO)C(=O)N[C@@H](Cc1ccccc1)C(=O)N[C@H](Cc1ccccc1)C(N)=O` [Compound 10c, (S)-N-((S)-1-(((S)-1-(((R)-1-Amino-1-oxo-3-phenylpropan-2-yl)amino)-1-oxo-3-phenylpropan-2-yl)amino)-3-hydroxy-1-oxopropan-2-yl)-2-(3-(4-(2-benzylphenoxy)piperidin-1-yl)propanamido)-3-methylbutanamide] ({Propanoyl(3-Pip(4-O-2-BnPh))}-VSF[dF]-NH2) came in with a Ki of 110 nM and a pKi of 6.96 ± 0.02.

In turn, `C[C@H](NC(=O)[C@H](C)NC(=O)[C@H](CC(N)=O)NC(=O)CCN1CCC(Oc2ccccc2Cc2ccccc2)CC1)C(=O)N[C@H](Cc1ccccc1)C(N)=O` [Compound 8g, (S)-N-((S)-1-(((S)-1-(((R)-1-Amino-1-oxo-3-phenylpropan-2-yl)amino)-1-oxopropan-2-yl)amino)-1-oxopropan-2-yl)-2-(3-(4-(2-benzylphenoxy)piperidin-1-yl)-propanamido)succinamide] ({Propanoyl(3-Pip(4-O-2-BnPh))}-NAA[dF]-NH2) returned a Ki of 562 nM and a pKi of 6.25 ± 0.20.

Compound `CC(C)[C@H](NC(=O)CCN1CCC(Oc2ccccc2Cc2ccccc2)CC1)C(=O)N[C@@H](CCCCN)C(=O)N[C@@H](C)C(=O)N[C@H](Cc1ccccc1)C(N)=O` [Compound 9h, (S)-6-Amino-N-((S)-1-(((R)-1-amino-1-oxo-3-phenylpropan-2-yl)amino)-1-oxopropan-2-yl)-2-((S)-2-(3-(4-(2-benzylphenoxy)piperidin-1-yl)propanamido)-3-methylbutanamido)hexanamide] ({Propanoyl(3-Pip(4-O-2-BnPh))}-VKA[dF]-NH2) came in with a Ki of 2400 nM and a pKi of 5.62 ± 0.06.

Turning to `CC(C)[C@H](NC(=O)CCN1CCC(Oc2ccccc2Cc2ccccc2)CC1)C(=O)N[C@@H](CC(N)=O)C(=O)N[C@@H](C)C(=O)N[C@H](Cc1ccccc1)C(N)=O` [Compound 9f, (S)-N1-((S)-1-(((R)-1-Amino-1-oxo-3-phenylpropan-2-yl)amino)-1-oxopropan-2-yl)-2-((S)-2-(3-(4-(2-benzylphenoxy)piperidin-1-yl)propanamido)-3-methylbutanamido)succinamide] ({Propanoyl(3-Pip(4-O-2-BnPh))}-VNA[dF]-NH2), the affinity, expressed as Ki, was 832 nM and the pKi is reported as 6.08 ± 0.03.

The compound `C[C@H](NC(=O)[C@H](C)NC(=O)[C@H](Cc1ccccc1)NC(=O)CCN1CCC(Oc2ccccc2Cc2ccccc2)CC1)C(=O)N[C@H](Cc1ccccc1)C(N)=O` [Compound 8d, (S)-N-((S)-1-(((S)-1-(((R)-1-Amino-1-oxo-3-phenylpropan-2-yl)amino)-1-oxopropan-2-yl)amino)-1-oxopropan-2-yl)-2-(3-(4-(2-benzylphenoxy)piperidin-1-yl)propanamido)-3-phenylpropanamide] ({Propanoyl(3-Pip(4-O-2-BnPh))}-FAA[dF]-NH2) gave an inhibitory constant (Ki) of 1320 nM and a pKi of 5.88 ± 0.21.

With `CC(C)[C@H](NC(=O)CCN1CCC(Oc2ccccc2Cc2ccccc2)CC1)C(=O)N[C@@H](CO)C(=O)N[C@@H](CC(=O)O)C(=O)N[C@H](Cc1ccccc1)C(N)=O` [Compound 10i, (S)-4-(((R)-1-Amino-1-oxo-3-phenylpropan-2-yl)amino)-3-((S)-2-((S)-2-(3-(4-(2-benzylphenoxy)piperidin-1-yl)propanamido)-3-methylbutanamido)-3-hydroxypropanamido)-4-oxobutanoic Acid] ({Propanoyl(3-Pip(4-O-2-BnPh))}-VSD[dF]-NH2), the affinity, expressed as Ki, was 174 nM and the pKi is 6.76 ± 0.04.

In turn, `CC(C)[C@H](NC(=O)CCN1CCC(Oc2ccccc2Cc2ccccc2)CC1)C(=O)N[C@@H](CO)C(=O)N[C@@H](CCCCN)C(=O)N[C@H](Cc1ccccc1)C(N)=O` [Compound 10h, (S)-6-Amino-N-((R)-1-amino-1-oxo-3-phenylpropan-2-yl)-2-((S)-2-((S)-2-(3-(4-(2-benzylphenoxy)piperidin-1-yl)propanamido)-3-methylbutanamido)-3-hydroxypropanamido)hexanamide] ({Propanoyl(3-Pip(4-O-2-BnPh))}-VSK[dF]-NH2) registered a Ki of 186 nM and a pKi of 6.73 ± 0.05.

Compound `CC(C)[C@H](NC(=O)CCN1CCC(Oc2ccccc2Cc2ccccc2)CC1)C(=O)N[C@@H](CO)C(=O)N[C@@H](CC(N)=O)C(=O)N[C@H](Cc1ccccc1)C(N)=O` [Compound 10f, (S)-N1-((R)-1-Amino-1-oxo-3-phenylpropan-2-yl)-2-((S)-2-((S)-2-(3-(4-(2-benzylphenoxy)piperidin-1-yl)propanamido)-3-methylbutanamido)-3-hydroxypropanamido)succinamide] ({Propanoyl(3-Pip(4-O-2-BnPh))}-VSN[dF]-NH2) gave a Ki of 95 nM and a pKi of 7.02 ± 0.08.

As for `C[C@H](NC(=O)[C@H](C)NC(=O)[C@H](CCCCN)NC(=O)CCN1CCC(Oc2ccccc2Cc2ccccc2)CC1)C(=O)N[C@H](Cc1ccccc1)C(N)=O` [Compound 8i, (S)-6-Amino-N-((S)-1-(((S)-1-(((R)-1-amino-1-oxo-3-phenylpropan-2-yl)amino)-1-oxopropan-2-yl)-amino)-1-oxopropan-2-yl)-2-(3-(4-(2-benzylphenoxy)piperidin-1-yl)-propanamido)hexanamide] ({Propanoyl(3-Pip(4-O-2-BnPh))}-KAA[dF]-NH2), the affinity corresponds to a Ki of 1620 nM and the pKi was 5.79 ± 0.18.

Take “(S)-N1-((S)-1-Amino-1-oxo-3-phenylpropan-2-yl)-2-((S)-2-((S)-2-(3-(4-(2-benzylphenoxy)piperidin-1-yl)propanamido)-3-methylbutanamido)-3-hydroxypropanamido)succinimide [Compound 11b]”: the affinity corresponds to a Ki of 437 nM and the negative-log Ki (pKi) came out at 6.36 ± 0.22. Besides, the “pKi/pKD (H1R)” value (supplementary CSV, unlabeled congeners (pKi)) is 7.05.

As for `CC(C)[C@H](NC(=O)CCN1CCC(Oc2ccccc2Cc2ccccc2)CC1)C(=O)N[C@@H](Cc1ccc(O)cc1)C(=O)N[C@@H](C)C(=O)N[C@H](Cc1ccccc1)C(N)=O` [Compound 9d, (S)-N-((S)-1-(((S)-1-(((R)-1-Amino-1-oxo-3-phenylpropan-2-yl)amino)-1-oxopropan-2-yl)amino)-3-(4-hydroxyphenyl)-1-oxopropan-2-yl)-2-(3-(4-(2-benzylphenoxy)-piperidin-1-yl)propanamido)-3-methylbutanamide] ({Propanoyl(3-Pip(4-O-2-BnPh))}-VYA[dF]-NH2), the Ki came out at 437 nM and the pKi was 6.36 ± 0.04.

The compound `CC(C)[C@H](NC(=O)CCN1CCC(Oc2ccccc2Cc2ccccc2)CC1)C(=O)N[C@@H](CO)C(=O)N[C@@H](C)C(=O)N[C@H](Cc1ccccc1)C(N)=O` [Compound 9e, (S)-N-((S)-1-(((S)-1-(((R)-1-Amino-1-oxo-3-phenylpropan-2-yl)amino)-1-oxopropan-2-yl)amino)-3-hydroxy-1-oxo-propan-2-yl)-2-(3-(4-(2-benzylphenoxy)piperidin-1-yl)-propanamido)-3-methylbutanamide] ({Propanoyl(3-Pip(4-O-2-BnPh))}-VSA[dF]-NH2) came in with a Ki of 151 nM and a pKi of 6.82 ± 0.06.

For the compound `CC(C)[C@H](NC(=O)CCN1CCC(Oc2ccccc2Cc2ccccc2)CC1)C(=O)N[C@@H](CO)C(=O)N[C@@H](CO)C(=O)N[C@H](Cc1ccccc1)C(N)=O` [Compound 10e, (S)-N-((S)-1-(((S)-1-(((R)-1-Amino-1-oxo-3-phenylpropan-2-yl)amino)-3-hydroxy-1-oxopropan-2-yl)amino)-3-hydroxy-1-oxopropan-2-yl)-2-(3-(4-(2-benzylphenoxy)piperidin-1-yl)propanamido)-3-methylbutanamide] ({Propanoyl(3-Pip(4-O-2-BnPh))}-VSS[dF]-NH2), the Ki came out at 339 nM and the pKi is on record as 6.47 ± 0.03.
